According to ChEMBL document CHEMBL3632482, “Nitrogen Oxide Inhibitory Trimeric and Dimeric Carbazole Alkaloids from Murraya tetramera” (J Nat Prod, 2015):

Assays:
[1] = Antiinflammatory activity in mouse BV2 cells assessed as inhibition of LPS-stimulated nitric oxide production after 24 hrs by Griess assay; assay type: functional, cell-based; details: BV-2, 24 h
[2] = Cytotoxicity against mouse BV2 cells assessed as effect on cell viability after 24 hrs by MTT assay; assay type: cell-based; details: bv-2, 24 h
[3] = Cytotoxicity against mouse BV2 cells assessed as cell viability at 40 uM after 24 hrs by MTT assay relative to control; assay type: cell-based, BV-2; details: read-out: Activity
[4] = Antiinflammatory activity in mouse BV2 cells assessed as inhibition of LPS-stimulated nitric oxide production at 40 uM after 24 hrs by Griess assay relative to control; assay type: functional; details: BV-2, 24 h

SMILES | IC50 [1] [µM] | Activity [2] | viability at 24 h, 40 µM [3] [%] | inhibition at 40 µM [4] [%]
O=c1c(O)c(-c2ccc(O)c(O)c2)oc2cc(O)cc(O)c12 [QUERCETIN] | 17.4 | – | – | –
COc1ccc2c([nH]c3c(-c4c(O)c(C)cc5c4[nH]c4ccccc45)c(O)c(C)cc32)c1C=O | – | – | < 80 | –
COn1c2ccccc2c2cc(COCc3ccc4c(c3)c3ccccc3n4Cc3ccc4c(c3)c3ccccc3n4OC)ccc21 | – | Non-toxic | – | < 20
COc1c(O)c(C)cc2c3ccccc3n(Cc3ccc4[nH]c5ccccc5c4c3)c12 | – | – | < 80 | –
COc1ccc2c([nH]c3c(-c4c(O)c(C)cc5c4[nH]c4c(C=O)c(OC)ccc45)c(O)c(C)cc32)c1C=O | – | – | < 80 | –
COc1cc(Cn2c3ccccc3c3cc(C)c(O)c(OC)c32)cc2c1[nH]c1ccccc12 | – | – | < 80 | –
COc1cc(Cn2c3ccccc3c3cc(C)c(O)cc32)cc2c1[nH]c1ccccc12 | – | – | < 80 | –
COc1cc(Cc2ccc3[nH]c4c(OC)c(O)c(C)cc4c3c2)cc2c1[nH]c1ccccc12 | – | – | < 80 | –
COc1cc(Cc2c(O)c(C)cc3c2[nH]c2ccccc23)cc2c1[nH]c1ccccc12 | – | – | < 80 | –

Now from value to compound, other results behind:

IC50 [1] [µM] | SMILES | Activity [2] | viability at 24 h, 40 µM [3] [%] | inhibition at 40 µM [4] [%]
11.4 | COc1cc(Cc2c(C)cc3c([nH]c4ccccc43)c2OC)cc2c1[nH]c1ccccc12 | Non-toxic | – | –
19.3 | COc1cc(Cn2c3ccccc3c3cc(CO)cc(OC)c32)cc2c1[nH]c1ccccc12 | Non-toxic | – | –
38.5 | COc1cc(Cn2c3ccccc3c3cc(C=O)cc(OC)c32)cc2c1[nH]c1ccccc12 | Non-toxic | – | –
11.2 | COn1c2ccccc2c2cc(COCc3ccc4c(c3)c3ccccc3n4OC)ccc21 | Non-toxic | – | –
21.9 | COn1c2ccccc2c2cc(COCc3ccc4[nH]c5ccccc5c4c3)ccc21 | Non-toxic | – | –
17.9 | COc1cc(Cn2c3ccccc3c3cc(C=O)ccc32)cc2c1[nH]c1ccccc12 | Non-toxic | – | –
27.2 | COn1c2ccccc2c2cc(COCc3ccc4c(c3)c3cc(Cc5ccc6c(c5)c5ccccc5n6OC)ccc3n4OC)ccc21 | Non-toxic | – | –
26.7 | COc1cc(C)c(Cc2ccc3[nH]c4ccccc4c3c2)c2c1[nH]c1ccccc12 | Non-toxic | – | –
18.6 | COc1cc(Cc2c(C)cc(OC)c3[nH]c4ccccc4c23)cc2c1[nH]c1ccccc12 | Non-toxic | – | –
